Assay results from PMC5460016, “Inhibition of gelatinase B/MMP-9 does not attenuate colitis in murine models of inflammatory bowel disease” (Nature Communications, 2017).

Assays:
[1] = competitive ELISA, plasma of DSS-treated mice, all three administration schemes
Description: To ensure that therapeutic levels of peptide inhibitors A and B were attained during all three administration schemes, plasma levels were measured with competitive ELISAs as described previously.
Supplementary figure 8: Levels of peptide inhibitors A and B in plasma of DSS-treated mice at time of sacrifice. (a) Plasma levels of peptide inhibitor A measured with ELISA in DSS-treated mice that received either peptide inhibitor A (n=19) or saline (n=9) injections for all three different administration schemes (therapeutic, prophylactic and continuous).
(b) Similar ELISA analyses […]
were performed for detection of peptide inhibitor B in plasma of DSS-treated mice (n=19). This […]
similar as in Figures 9 and 10. Box plots are shown with 5-95 percentiles.
(1 picture or pasted object on this page, not shown here)

[2] = test system: Mmp3, Mmp8, Mmp9 mRNA in colonic mouse tissue; assay: Colonic mRNA expression of Mmps (quantitative RT-PCR) after peptide inhibitor administration; type: in vivo; conditions: DSS mice
From the text: Figure 10 Relative mRNA expression of specific Mmps and Tace after administration of peptide MMP inhibitors. Relative mRNA expression measured in colonic mouse tissue after a therapeutic injection scheme (n=16) (a), a prophylactic injection scheme (n=23) (b) and continuous osmotic pump delivery (n=22) (c) of peptide inhibitors A and B. Expression levels were normalized to the control condition (water+saline) and 18S with the use of the 2-delta delta CT method. Mean values with s.e.m. are shown. Statistical analyses were performed with Mann–Whitney U tests (*P<0.05, **P≤0.01; NS, not significant). Colour codes are similar as in Figs 8 and 9.
Snap-frozen mouse colonic fragments were mechanically homogenized with the use of Precellys 24 homogenizer (VWR, Leuven, Belgium). Total RNA was extracted according to the manufacturer's guidelines (RNeasy Mini kit, Qiagen, Hilden, Germany, #74104) and quantified with the use of a Nanodrop ND-1000 Spectrophotometer (Isogen Life Science, Temse, Belgium). cDNA was synthesized with the use of High-Capacity cDNA Reverse Transcription Kit (Applied Biosystems, Foster City, CA, USA). Mmp3, Mmp8, Mmp9 and Tace mRNA levels were analysed in duplicate on 25 ng cDNA by quantitative RT-PCR with the use of TaqMan Universal PCR Master Mix from Applied Biosystems and primer and probe sets from Integrated DNA Technologies (Leuven, Belgium; Supplementary Table 3). Data were normalized to 18S ribosomal RNA levels.

MMP-3 = conditions: Supplementary table 2, no method in this paper, known effects, cited from earlier work
From the text: (§1) page 11: Supplementary table 2: IC50 values of peptide inhibitors A and B towards MMP -3, -8, -9 and TACE (μM). Name Peptide sequences† MMP-3 MMP-8 MMP-9 TACE Peptide inhibitor […] No inhibition 17.6 12.5 7.0 (CPU 1) Peptide inhibitor […] 7.0 0.036 0.16 15 (CPU 2) † Peptide sequences are in one-letter codes for amino acids. Pyr stands for pyridylalanine. Supplementary table 3: Primer sequences used for qRT-PCR analyses. Gene Forward primer Reverse primer Probe Mmp3 [NT] Mmp8 ...

MMP-8 = conditions: Supplementary table 2; no method in this paper; known effects; read-out: IC50 towards MMP-8; cited from earlier work
From the text: as §1

MMP-9 = conditions: Supplementary table 2; no method in this paper; known effects; read-out: IC50 towards MMP-9; cited from earlier work
From the text: as §1

TACE = conditions: Supplementary table 2; no method in this paper; known effects; read-out: IC50 towards TACE; cited from earlier work
From the text: as §1

[3] = test system: C57BL/6J mice with acute DSS-induced colitis; assay: Treatment of acute DSS-induced colitis with peptide inhibitors; conditions: for severity of intestinal inflammation by histopathological analysis (histological inflammation and activity scores): all three administration schemes (therapeutic, prophylactic, osmotic pump); for body weight loss at time of killing: Mann-Whitney U
From the text: Acute and chronic dextran sodium sulphate (DSS) colitis were induced as described previously[13][39]. Acute colitis was induced in 8–10 weeks old male and female mice by oral administration of 2–3% DSS (35–50 kDa; MP Biomedicals, Illkirch, France) in the drinking water during 7 days followed by 2–3 days on normal drinking water. All mice were killed at day 9 (Fig. 1a). […] Control mice (WT and MMP-9^−/−) received normal drinking water throughout the duration of the experiment. The body weight of the mice was monitored daily or every other day in case of the acute model, whereas in the chronic model, body weight was followed every 3–4 days. Of importance, WT and MMP-9^−/− mice were co-housed (maximally 5 mice per cage) during the experiments ensuring identical environmental conditions as well as controlling for cage-related effects (for example, coprophagia and intake of food and (DSS-supplemented) drinking water). Both the acute and chronic DSS experiments were repeated three times whereby results could be replicated each time and in total 79 mice were used in the acute models and 35 mice in the chronic models. The number of mice needed was estimated based on previous experience[13] and included at least 5 mice per group to ensure adequate power of detection. […] These mice were excluded from further analyses. […] No randomization was applied before start of the experiments.
Animals were euthanized with sodium pentobarbital (Nembutal, Ovation Pharmaceuticals Inc. Deerfield, USA). The DAI was calculated based on three parameters: loss of body weight (one point for each 5% loss of body weight), consistency of stools (normal=0, soft=2, liquid=4) and presence of gross blood in stools (0=none, 1=present)[13][39]. The colon was isolated, weighted and its length measured from the ileocecal junction to the anus. […] The macroscopic damage score was calculated based on extent of inflammation along the colon (in cm, multiplied by 2 if severe), colonic mesenterial adhesion (0=none, 1=mild, 2=severe) and colonic hyperaemia (0=none and 1=present)[13][39].
Acute colitis was induced in male and female mice via administration of 2% DSS in the drinking water for 7 days followed by 2–4 days on normal drinking water.

[4] = continuous osmotic pump delivery, DSS mice, versus saline
[5] = prophylactic scheme: daily i.p. 250 μg from day 1, 2% DSS mice, versus saline
[6] = therapeutic or prophylactic schemes (daily i.p. 250 μg), DSS mice
[7] = therapeutic scheme: daily i.p. 250 μg from day 6, 2% DSS mice, versus saline

| Substance | plasma levels of peptide inhibitor at time of sacrifice [1] | IC50 (MMP-8) [µM] | IC50 (MMP-9) [µM] | IC50 (TACE) [µM] | severity of intestinal inflammation by histopathological analysis (histological inflammation and activity scores) ([3]; DSS mice) | other colonic measurements (colon weight, colon/body weight ratio and colon weight/length ratio) [3, 4] | body weight loss [3, 5] | disease activity index (DAI) [3, 5] | macroscopic damage score [3, 6] | disease activity index (DAI) [3, 7] | body weight loss at time of killing [3, 7] | other results |
| --- | --- | --- | --- | --- | --- | --- | --- | --- | --- | --- | --- | --- |
| IVRRADRAAVP-GGGG-P(Pyr)CBRGE [Peptide inhibitor B] | inhibitory plasma levels were indeed reached | 0.036 | 0.16 | 15 | did not observe a significant effect | not significantly different | no differences were observed | not significantly different | not altered | higher | significantly more body weight loss | colonic Mmp8 and Mmp3 mRNA expression ([2]; continuous osmotic pump delivery, compared to saline): significantly higher; colonic Mmp9 mRNA expression ([2]; continuous osmotic pump delivery, compared with peptide inhibitor A or saline): significantly increased; colonic expression of Mmp9 mRNA ([2]; prophylactic scheme, compared to saline, qRT-PCR normalized to 18S): significantly increased expression of Mmp9; colonic expression of Mmp3, Mmp8 and Mmp9 mRNA ([2]; therapeutic scheme, compared to peptide inhibitor A or saline, qRT-PCR normalized to 18S): appeared to be higher; IC50 (MMP-3; read-out: IC50 towards MMP-3): 7 µM |
| P(Pyr)CBRGE-GGGG-IVRRADRAAVP [Peptide inhibitor A] | inhibitory plasma levels were indeed reached | 17.6 | 12.5 | 7 | did not observe a significant effect | not significantly different | no differences were observed | not significantly different | not altered | no difference was observed | no difference in body weight loss | IC50 towards MMP-3 (MMP-3): No inhibition; colon length ([3]; continuous osmotic pump delivery, DSS mice, versus peptide inhibitor B or saline): significantly longer; macroscopic damage score [3, 4]: lower macroscopic damage score; body weight loss ([3]; continuous s.c. osmotic pump delivery, 30 mg kg−1 per day, DSS mice, versus peptide inhibitor B and saline): mild protection with lower loss of body weight; disease activity index (DAI) ([3]; continuous s.c. osmotic pump delivery, 30 mg kg−1 per day, DSS mice, versus peptide inhibitor B or saline): significantly lower DAI |
